# Source: ChEMBL document CHEMBL2440076, “New triarylpyrazoles as broad-spectrum anticancer agents: design, synthesis, and biological evaluation” (Eur J Med Chem, 2013)
# Legend:
# Type in all cases: functional
# SF-268 = test: Growth inhibition of human SF268 cells assessed as cell growth at 10^-5 M after 48 hrs by sulforhodamine B assay; settings: SF-268, 48 h, read-out: Activity
# HCT-116 [1] = test: Growth inhibition of human HCT116 cells assessed as cell growth at 10^-4 M after 48 hrs by sulforhodamine B assay; settings: HCT-116, 48 h, read-out: Activity
# Malme-3M [2] = test: Growth inhibition of human MALME-3M cells assessed as cell growth at 10^-4 M after 48 hrs by sulforhodamine B assay; settings: read-out: Activity
# SK-OV-3 = test: Growth inhibition of human SKOV3 cells assessed as cell growth at 10^-5 M after 48 hrs by sulforhodamine B assay; settings: SK-OV-3, 48 h, read-out: Activity
# UO-31 = test: Growth inhibition of human UO31 cells assessed as cell growth at 10^-8 M after 48 hrs by sulforhodamine B assay; settings: UO-31, 48 h, read-out: Activity
# UACC-62 [3] = test: Growth inhibition of human UACC62 cells assessed as cell growth at 10^-6 M after 48 hrs by sulforhodamine B assay; settings: UACC-62, 48 h, read-out: Activity
# NCI-H23 = test: Growth inhibition of human NCI-H23 cells assessed as cell growth at 10^-4 M after 48 hrs by sulforhodamine B assay; settings: NCI-H23, 48 h, read-out: Activity
# PC-3 [4] = test: Growth inhibition of human PC3 cells assessed as cell growth at 10^-8 M after 48 hrs by sulforhodamine B assay; settings: PC-3, 48 h, read-out: Activity
# M14 = test: Growth inhibition of human M14 cells assessed as cell growth at 10^-4 M after 48 hrs by sulforhodamine B assay; settings: M14, 48 h, read-out: Activity
# NCI-H522 [5] = test: Growth inhibition of human NCI-H522 cells assessed as cell growth at 10^-7 M after 48 hrs by sulforhodamine B assay; settings: NCI-H522, 48 h, read-out: Activity
# LOX IMVI = test: Growth inhibition of human LOXIMVI cells assessed as cell growth at 10^-8 M after 48 hrs by sulforhodamine B assay; settings: read-out: Activity
# UACC-62 [6] = test: Growth inhibition of human UACC62 cells assessed as cell growth at 10^-5 M after 48 hrs by sulforhodamine B assay; settings: UACC-62, 48 h, read-out: Activity
# OVCAR-8 = test: Growth inhibition of human OVCAR8 cells assessed as cell growth at 10^-5 M after 48 hrs by sulforhodamine B assay; settings: OVCAR-8, 48 h, read-out: Activity
# Malme-3M [7] = test: Growth inhibition of human MALME-3M cells assessed as cell growth at 10^-5 M after 48 hrs by sulforhodamine B assay; settings: read-out: Activity
# IGROV-1 = test: Growth inhibition of human IGROV1 cells assessed as cell growth at 10^-7 M after 48 hrs by sulforhodamine B assay; settings: IGROV-1, 48 h, read-out: Activity
# NCI-H522 [8] = test: Growth inhibition of human NCI-H522 cells assessed as cell growth at 10^-4 M after 48 hrs by sulforhodamine B assay; settings: NCI-H522, 48 h, read-out: Activity
# NCI-H460 = test: Growth inhibition of human NCI-H460 cells assessed as cell growth at 10^-4 M after 48 hrs by sulforhodamine B assay; settings: NCI-H460, 48 h, read-out: Activity
# HL-60(TB) = test: Growth inhibition of human HL-60(TB) cells assessed as cell growth at 10^-5 M after 48 hrs by sulforhodamine B assay; settings: HL-60, 48 h, read-out: Activity
# SW-620 [9] = test: Growth inhibition of human SW620 cells assessed as cell growth at 10^-7 M after 48 hrs by sulforhodamine B assay; settings: SW-620, 48 h, read-out: Activity
# SN12C = test: Growth inhibition of human SN12C cells assessed as cell growth at 10^-4 M after 48 hrs by sulforhodamine B assay; settings: read-out: Activity
# OVCAR-4 = test: Growth inhibition of human OVCAR4 cells assessed as cell growth at 10^-5 M after 48 hrs by sulforhodamine B assay; settings: OVCAR-4, 48 h, read-out: Activity
# PC-3 [10] = test: Growth inhibition of human PC3 cells assessed as cell growth at 3X10'-8 M after 48 hrs by sulforhodamine B assay; settings: PC-3, 48 h, read-out: Activity
# T47D = test: Growth inhibition of human T47D cells assessed as cell growth at 3X10'-7 M after 48 hrs by sulforhodamine B assay; settings: read-out: Activity
# DU-145 [11] = test: Growth inhibition of human DU145 cells assessed as cell growth at 3X10'-6 M after 48 hrs by sulforhodamine B assay; settings: DU-145, 48 h, read-out: Activity
# K562 [12] = test: Growth inhibition of human K562 cells assessed as cell growth at 3X10'-6 M after 48 hrs by sulforhodamine B assay; settings: K562, 48 h, read-out: Activity
# SK-MEL-5 [13] = test: Growth inhibition of human SK-MEL-5 cells assessed as cell growth at 3X10'-5 M after 48 hrs by sulforhodamine B assay; settings: SK-MEL-5, 48 h, read-out: Activity
# SK-MEL-5 [14] = test: Growth inhibition of human SK-MEL-5 cells assessed as cell growth at 3X10'-7 M after 48 hrs by sulforhodamine B assay; settings: SK-MEL-5, 48 h, read-out: Activity
# UACC-257 = test: Growth inhibition of human UACC257 cells assessed as cell growth at 3X10'-5 M after 48 hrs by sulforhodamine B assay; settings: UACC-257, 48 h, read-out: Activity
# BT-549 = test: Growth inhibition of human BT549 cells assessed as cell growth at 3X10'-6 M after 48 hrs by sulforhodamine B assay; settings: BT-549, 48 h, read-out: Activity
# [15] = Growth inhibition of human NCI-ADR-RES cells assessed as cell growth at 3X10'-6 M after 48 hrs by sulforhodamine B assay; settings: read-out: Activity
# 786-0 = test: Growth inhibition of human 786-0 cells assessed as cell growth at 3X10'-5 M after 48 hrs by sulforhodamine B assay; settings: 786-0, 48 h, read-out: Activity
# SW-620 [16] = test: Growth inhibition of human SW620 cells assessed as cell growth at 3X10'-8 M after 48 hrs by sulforhodamine B assay; settings: SW-620, 48 h, read-out: Activity
# K562 [17] = test: Growth inhibition of human K562 cells assessed as cell growth at 3X10'-8 M after 48 hrs by sulforhodamine B assay; settings: K562, 48 h, read-out: Activity
# HCT-116 [18] = test: Growth inhibition of human HCT116 cells assessed as cell growth at 3X10'-5 M after 48 hrs by sulforhodamine B assay; settings: HCT-116, 48 h, read-out: Activity
# CAKI-1 = test: Growth inhibition of human CAKI-1 cells assessed as cell growth at 3X10'-8 M after 48 hrs by sulforhodamine B assay; settings: CAKI-1, 48 h, read-out: Activity
# MDA-MB-435 = test: Growth inhibition of human MDA-MB-435 cells assessed as cell growth at 3X10'-5 M after 48 hrs by sulforhodamine B assay; settings: MDA-MB-435, 48 h, read-out: Activity
# K562 [19] = test: Growth inhibition of human K562 cells assessed as cell growth at 3X10'-7 M after 48 hrs by sulforhodamine B assay; settings: K562, 48 h, read-out: Activity
# DU-145 [20] = test: Growth inhibition of human DU145 cells assessed as cell growth at 5X10'-6 M after 48 hrs by sulforhodamine B assay; settings: DU-145, 48 h, read-out: Activity
SMILES,growth at 10 µM (SF-268) [%],growth at 100 µM (HCT-116 [1]) [%],growth at 100 µM (Malme-3M [2]) [%],growth at 10 µM (SK-OV-3) [%],growth at 0.01 µM (UO-31) [%],growth at 1 µM (UACC-62 [3]) [%],growth at 100 µM (NCI-H23) [%],growth at 0.01 µM (PC-3 [4]) [%],growth at 100 µM (M14) [%],growth at 0.1 µM (NCI-H522 [5]) [%],growth at 0.01 µM (LOX IMVI) [%],growth at 10 µM (UACC-62 [6]) [%],growth at 10 µM (OVCAR-8) [%],growth at 10 µM (Malme-3M [7]) [%],growth at 0.1 µM (IGROV-1) [%],growth at 100 µM (NCI-H522 [8]) [%],growth at 100 µM (NCI-H460) [%],growth at 10 µM (HL-60(TB)) [%],growth at 0.1 µM (SW-620 [9]) [%],growth at 100 µM (SN12C) [%],further results
COc1cc(-c2nn(-c3cccc(NC(=O)c4ccc(N5CCOCC5)c(C(F)(F)F)c4)c3)cc2-c2ccncc2)ccc1Cl,12,2,-24,-11,91,42,-9,92,-30,51,98,-4,3,-14,81,-23,1,2,58,11,growth at 10 µM (OVCAR-4): 32%
COc1cc(-c2nn(-c3cccc(NC(=O)c4ccccc4)c3)cc2-c2ccncc2)ccc1Cl,24,9,20,31,92,41,18,94,-41,85,94,25,58,8,91,6,5,13,92,36,growth at 10 µM (OVCAR-4): 33%
COc1cc(-c2nn(-c3cccc(NC(=O)c4ccc(Cl)c(C(F)(F)F)c4)c3)cc2-c2ccncc2)ccc1Cl,–,–,–,–,–,–,–,–,–,–,–,–,–,–,–,–,–,–,–,–,growth at 0.03 µM (PC-3 [10]): 92%; growth at 0.3 µM (T47D): 92%; growth at 3 µM (DU-145 [11]): 67%; growth at 3 µM (K562 [12]): 22%; growth at 30 µM (SK-MEL-5 [13]): -51%; growth at 0.3 µM (SK-MEL-5 [14]): 93%; growth at 30 µM (UACC-257): 32%; growth at 3 µM (BT-549): 62%; growth at 3 µM [15]: 22%; growth at 30 µM (786-0): 32%; growth at 0.03 µM (SW-620 [16]): 97%; growth at 0.03 µM (K562 [17]): 100%; growth at 30 µM (HCT-116 [18]): 18%; growth at 0.03 µM (CAKI-1): 93%; growth at 30 µM (MDA-MB-435): -52%; growth at 0.3 µM (K562 [19]): 115%
O=C(Nc1cccc(-n2cc(-c3ccncc3)c(-c3ccc(Cl)c(O)c3)n2)c1)Nc1ccc(Cl)c(C(F)(F)F)c1,–,–,–,–,–,–,–,–,–,–,–,–,–,–,–,–,–,–,–,–,growth at 0.03 µM (PC-3 [10]): 89%; growth at 0.3 µM (T47D): 95%; growth at 3 µM (DU-145 [11]): 10%; growth at 3 µM (K562 [12]): 3%; growth at 30 µM (SK-MEL-5 [13]): -97%; growth at 0.3 µM (SK-MEL-5 [14]): 89%; growth at 30 µM (UACC-257): -90%; growth at 3 µM (BT-549): 12%; growth at 3 µM [15]: -7%; growth at 30 µM (786-0): 1%; growth at 0.03 µM (SW-620 [16]): 101%; growth at 0.03 µM (K562 [17]): 105%; growth at 30 µM (HCT-116 [18]): -43%; growth at 0.03 µM (CAKI-1): 91%; growth at 30 µM (MDA-MB-435): -54%; growth at 0.3 µM (K562 [19]): 88%
COc1cc(-c2nn(-c3cccc(NC(=O)c4cccc(C(F)(F)F)c4)c3)cc2-c2ccncc2)ccc1Cl,–,–,–,–,–,–,–,–,–,–,–,–,–,–,–,–,–,–,–,–,growth at 5 µM (DU-145 [20]): 15%
COc1cc(-c2nn(-c3cccc(NC(=O)Nc4ccc(Cl)c(Cl)c4)c3)cc2-c2ccncc2)ccc1Cl,–,–,–,–,–,–,–,–,–,–,–,–,–,–,–,–,–,–,–,–,growth at 5 µM (DU-145 [20]): 7%
